Test results as given in patent US7928060B2, “Amylin family polypeptide-6 (AFP-6) analogs and methods of making and using them” (Amylin Pharmaceuticals, Inc., priority 2004, dated 2011).

How the values were obtained:
[1] = test system: Harlan Sprague Dawley rats; assay: gastric emptying rate in conscious rats (3H-glucose gavage); format: in vivo, rat; conditions: subcutaneous
Method: Male Harlan Sprague Dawley® rats, 237-317 g, were housed with a 12:12 hour light:dark cycle. The experiment was carried out during the light cycle. At time=0 min, test peptide (amylin or AFP-6) at 6.3, 20, 63, 200, 632, and 1122 μg/kg or vehicle was injected (subcutaneous) into conscious rats (n=6/group). At t=5 min, a solution of 1 mL sterile water containing 5 μCi D-[3-^3H] glucose was gavaged by oropharyngeal tube to conscious rats. Blood samples were collected 30 min after gavage and assayed for counts per minute (CPM) in plasma. 20% benzocaine liquid topical anesthetic was used to eliminate pain during sampling. (Gedulin et al. (1995) Gastroenterology 108:A604). The appearance of counts in plasma is a reflection of the rate of gastric emptying. Significance of difference (p<0.05) was determined by ANOVA.

calcitonin receptor = biological target: T1, calcitonin receptor (Homo sapiens, UniProt P30988); assay: cAMP production in T47D cells (AlphaScreen)
T1 sequence (P30988 25-474): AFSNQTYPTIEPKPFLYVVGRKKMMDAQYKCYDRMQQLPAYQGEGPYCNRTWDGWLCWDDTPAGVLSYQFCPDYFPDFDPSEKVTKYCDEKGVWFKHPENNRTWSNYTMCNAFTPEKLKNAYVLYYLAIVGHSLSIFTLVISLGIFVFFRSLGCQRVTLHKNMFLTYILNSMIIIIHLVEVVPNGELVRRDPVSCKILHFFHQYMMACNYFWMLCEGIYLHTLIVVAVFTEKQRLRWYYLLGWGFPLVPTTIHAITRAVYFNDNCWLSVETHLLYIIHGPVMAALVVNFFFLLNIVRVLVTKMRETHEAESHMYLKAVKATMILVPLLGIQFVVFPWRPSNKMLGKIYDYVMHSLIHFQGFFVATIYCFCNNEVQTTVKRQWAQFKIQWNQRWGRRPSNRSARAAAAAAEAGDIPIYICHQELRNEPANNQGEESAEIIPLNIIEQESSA
Description: Data from three exemplary independent alpha screen assays are summarized with EC50 values calculated in PRISM.

CSCC[C@H](NC(=O)[C@H](CC(C)C)NC(=O)[C@H](CCC(N)=O)NC(=O)[C@H](Cc1c[nH]c2ccccc12)NC(=O)[C@H](CC(C)C)NC(=O)[C@H](CCCNC(=N)N)NC(=O)[C@H](Cc1c[nH]cn1)NC(=O)[C@H](CO)NC(=O)[C@H](CC(C)C)NC(=O)[C@H](CC(N)=O)NC(=O)[C@H](CCC(N)=O)NC(=O)[C@@H](NC(=O)[C@H](CCC(N)=O)NC(=O)[C@@H]1CSSC[C@H](NC(=O)CNC(=O)[C@@H](NC(=O)[C@H](CCCNC(=N)N)NC(=O)[C@H](CC(C)C)NC(=O)[C@H](CC(C)C)NC(=O)[C@H](CCC(N)=O)NC(=O)[C@H](C)NC(=O)[C@H](CCC(N)=O)NC(=O)[C@@H](N)[C@@H](C)O)C(C)C)C(=O)N[C@@H](C(C)C)C(=O)N[C@@H](CC(C)C)C(=O)NCC(=O)N[C@@H]([C@@H](C)O)C(=O)N1)C(C)C)C(=O)NCC(=O)N1CCC[C@H]1C(=O)N[C@@H](C)C(=O)NCC(=O)N[C@@H](CCCNC(=N)N)C(=O)N[C@@H](CCC(N)=O)C(=O)N[C@@H](CC(=O)O)C(=O)N[C@@H](CO)C(=O)N[C@@H](C)C(=O)N1CCC[C@H]1C(=O)N[C@H](C(=O)N[C@@H](CC(=O)O)C(=O)N1CCC[C@H]1C(=O)N[C@@H](CO)C(=O)N[C@@H](CO)C(=O)N1CCC[C@H]1C(=O)N[C@@H](Cc1c[nH]cn1)C(=O)N[C@@H](CO)C(=O)N[C@@H](Cc1ccc(O)cc1)C(N)=O)C(C)C [SEQ ID NO: 1]
ED50, inhibition of gastric emptying [1]: 0.049 mg/kg
rank order of potency, T47D cells (calcitonin receptor): calcitonin>amylin >AFP-6=hCGRP alpha>adrenomedullin
